In ChEMBL document CHEMBL5365446, “Discovery, Structure-Activity Relationships, and In Vivo Activity of Dihydropyridone Agonists of the Bile Acid Receptor TGR5” (J Med Chem, 2023):
Values after ≈ are worked out from the molar mass of the structure shown.

Key:
[1] = target: T1, G-protein coupled bile acid receptor 1 (Homo sapiens, UniProt Q8TDU6); assay: Agonist activity at human TGR5 receptor expressed in HEK293 cells cotransfected with pCMV tag4b-TGR5 assessed as activation of intracellular cAMP production incubated overnight by luciferase reporter gene assay; type: functional, cell-based
T1 sequence (Q8TDU6 whole entry): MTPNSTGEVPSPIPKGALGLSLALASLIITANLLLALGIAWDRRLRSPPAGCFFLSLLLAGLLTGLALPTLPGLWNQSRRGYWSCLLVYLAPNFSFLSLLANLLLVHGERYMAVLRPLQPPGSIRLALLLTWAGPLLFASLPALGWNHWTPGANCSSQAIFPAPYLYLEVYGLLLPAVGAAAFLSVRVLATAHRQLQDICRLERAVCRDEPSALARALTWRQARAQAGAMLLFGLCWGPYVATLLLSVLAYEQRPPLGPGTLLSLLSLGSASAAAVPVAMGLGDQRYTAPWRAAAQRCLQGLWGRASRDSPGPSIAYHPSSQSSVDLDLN

[2] = target: T2, G-protein coupled bile acid receptor 1 (Mus musculus, UniProt Q80SS6); assay: Agonist activity at mouse TGR5 receptor expressed in HEK293 cells cotransfected with pCMV AC6-TGR5 assessed as activation of intracellular cAMP production incubated overnight by luciferase reporter gene assay; type: functional, cell-based
T2 sequence (Q80SS6 whole entry): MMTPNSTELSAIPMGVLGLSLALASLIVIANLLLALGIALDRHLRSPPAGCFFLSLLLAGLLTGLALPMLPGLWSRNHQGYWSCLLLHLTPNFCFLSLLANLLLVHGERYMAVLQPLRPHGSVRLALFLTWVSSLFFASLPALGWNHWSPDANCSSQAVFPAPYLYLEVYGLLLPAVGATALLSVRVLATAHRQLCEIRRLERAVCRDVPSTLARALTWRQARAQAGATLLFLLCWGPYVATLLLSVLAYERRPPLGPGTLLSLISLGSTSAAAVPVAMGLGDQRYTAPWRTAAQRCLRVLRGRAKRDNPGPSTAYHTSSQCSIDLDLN

physchem [3] = conditions: buffer, pH 7.4
[4] = Apparent permeability across basolateral to apical side in human Caco-2 cells measured after 1 hr by LC-MS/MS analysis
physchem [5] = conditions: buffer, pH 7.4; remark: listed apart in the source
[6] = Apparent permeability across apical to basolateral side in human Caco-2 cells measured after 1 hr by LC-MS/MS analysis
in vitro [7] = conditions: CD-1, mouse, plasma
in vitro [8] = conditions: CD-1, mouse, liver microsomes
in vitro [9] = conditions: CD-1, mouse, liver microsomes; remark: listed apart in the source

SMILES | EC50 ([1]; read-out: EC50) [nM] | EC50 ([2]; read-out: EC50) [nM] | also measured
CC1=C(C(=O)OCc2ccccc2)C(c2ccc(C(F)(F)F)cc2)CC(=O)N1 (stereo not given) | 1200 |  | 
CC1=C(C(=O)OCc2ccccc2)C(c2ccccc2OC(C)C)CC(=O)N1 (stereo not given) |  | 2300 | 
C#CCN1C(=O)CC(c2ccc(Cl)cc2)C(C(=O)OCc2ccccc2)=C1C (stereo not given) | 700 | 1000 | 
COCCN1C(=O)CC(c2ccc(Cl)cc2)C(C(=O)OCc2ccc(C)cc2)=C1C (stereo not given) | 300 |  | 
COc1ccccc1COC(=O)C1=C(C)N(C[C@@H]2CCCO2)C(=O)C[C@H]1c1ccc(Cl)nc1 | 35 |  | 
CCN1C(=O)CC(c2ccc(Cl)cc2)C(C(=O)OCc2ccccc2)=C1C (stereo not given) |  | 900 | 
COCCN1C(=O)CC(c2ccc(Cl)cc2)C(C(=O)OCc2cccc(C)c2)=C1C (stereo not given) |  |  | EC50 ([2]; read-out: pEC50 (converted)): 316 nM
COCCCN1C(=O)CC(c2ccc(Cl)cc2)C(C(=O)OCc2ccccc2OC)=C1C (stereo not given) | 190 | 730 | 
COCCN1C(=O)CC(c2ccc(Cl)cc2)C(C(=O)OCc2cccc(Cl)c2)=C1C (stereo not given) |  | 600 | 
COCCN1C(=O)CC(c2ccc(Cl)cc2)C(C(=O)OCc2cccc(F)c2)=C1C (stereo not given) |  | 800 | 
COCCN1C(=O)CC(c2ccc(Cl)cc2)C(C(=O)OCc2ccccc2Cl)=C1C (stereo not given) | 300 | 1000 | 
COc1ccccc1COC(=O)C1=C(C)N(C[C@H]2CCCO2)C(=O)C[C@H]1c1ccc(Cl)cc1 | 14 |  | EC50 ([1]; read-out: pEC50 (converted)): 15.8 nM; logD at 24 h (physchem [3]): 3.2; Papp B→A at 1 h [4]: 0.4 ×10⁻⁶ cm/s; solubility thermodynamic at 24 h (physchem [5]): 2.6 µM (≈ 1.22 µg/mL); Papp A→B at 1 h [6]: 0.2 ×10⁻⁶ cm/s
COCCN1C(=O)CC(c2ccc(Cl)cc2)C(C(=O)OCc2ccc(C(=O)OC)cc2)=C1C (stereo not given) | 300 |  | 
COc1ccccc1COC(=O)C1=C(C)N(CCO)C(=O)CC1c1ccc(Cl)cc1 (stereo not given) |  | 770 | 
COCCN1C(=O)CC(c2ccc(Cl)cc2)C(C(=O)OCc2ccc(C(F)(F)F)cc2)=C1C (stereo not given) |  | 400 | 
CC1=C(C(=O)OCc2ccccc2)C(c2ccc(Cl)cc2)CC(=O)N1CC1CCC1 (stereo not given) |  | 300 | EC50 ([1]; read-out: pEC50 (converted)): 316 nM
COCCN1C(=O)CC(c2ccc(Cl)cc2)C(C(=O)OCc2ccccc2F)=C1C (stereo not given) | 300 | 600 | 
COc1ccccc1COC(=O)C1=C(C)N(C[C@@H]2CCCO2)C(=O)C[C@@H]1c1ccc(Cl)nc1 | 429 |  | 
C=C(C)CN1C(=O)CC(c2ccc(Cl)cc2)C(C(=O)OCc2ccccc2)=C1C (stereo not given) | 800 | 1100 | 
COc1ccccc1COC(=O)C1=C(C)N(C[C@H]2CCCO2)C(=O)C[C@H]1c1ccc(Cl)nc1 | 2 |  | logD at 24 h (physchem [3]): 3.7; Papp B→A at 1 h [4]: 12.3 ×10⁻⁶ cm/s; half-life at 10 µM (in vitro [7]): > 6 h; half-life at 40 min, 1 µM (in vitro [8]): 24 s; solubility thermodynamic at 24 h (physchem [5]): 38.2 µM (≈ 18 µg/mL); Papp A→B at 1 h [6]: 22.5 ×10⁻⁶ cm/s; microsomal CLint at 40 min, 1 µM (in vitro [9]): 1310 µL/min/mg
CC1=C(C(=O)OCc2ccccc2)C(c2ccc(Cl)cc2)CC(=O)N1C (stereo not given) |  |  | EC50 ([1]; read-out: pEC50 (converted)): 631 nM
CC1=C(C(=O)OCc2ccccc2)C(c2ccc(C)cc2)CC(=O)N1 (stereo not given) | 6300 |  | 
COC(=O)CN1C(=O)CC(c2ccc(Cl)cc2)C(C(=O)OCc2ccccc2OC)=C1C (stereo not given) |  | 50 | 
CCCCN1C(=O)CC(c2ccc(Cl)cc2)C(C(=O)OCc2ccccc2)=C1C (stereo not given) | 500 | 900 | 
COCCN1C(=O)CC(c2ccc(Cl)cc2)C(C(=O)OCc2c(C)cc(C)cc2C)=C1C (stereo not given) |  | 300 | 
CC1=C(C(=O)OCc2ccccc2)C(c2ccc(Cl)cc2F)CC(=O)N1 (stereo not given) | 2000 |  | 
COc1ccccc1COC(=O)C1=C(C)N(C[C@H]2CCCO2)C(=O)C[C@H]1c1ccc(Cl)cc1 (racemic) | 30 |  | EC50 ([1]; read-out: pEC50 (converted)): 25.1 nM
COCCN1C(=O)CC(c2ccc(Cl)cc2)C(C(=O)OCc2ccccc2OC)=C1C (single isomer, unassigned; enantiomer 1) | 120 |  | 

Second part, led by results:

EC50 ([1]; read-out: EC50) [nM] | EC50 ([2]; read-out: EC50) [nM] | SMILES | also measured
500 | 900 | COCCN1C(=O)CC(c2ccc(Cl)cc2)C(C(=O)OCc2ccccc2)=C1C (stereo not given) | 
223 |  | COc1ccccc1COC(=O)C1=C(C)N(C[C@H]2CCCO2)C(=O)C[C@@H]1c1ccc(Cl)nc1 | 
260 | 160 | COc1ccccc1COC(=O)C1=C(C)N(Cc2ccco2)C(=O)CC1c1ccc(Cl)cc1 (stereo not given) | 
 | 1200 | COCCN1C(=O)CC(c2ccc(Cl)cc2)C(C(=O)OCc2ccccc2OC(F)(F)F)=C1C (stereo not given) | EC50 ([2]; read-out: pEC50 (converted)): 10000 nM
300 | 500 | COCCN1C(=O)CC(c2ccc(Cl)cc2)C(C(=O)OCc2ccc(F)cc2)=C1C (stereo not given) | 
1000 | 700 | COCCN1C(=O)CC(c2ccc(Cl)cc2)C(C(=O)OCc2ccncc2)=C1C (stereo not given) | 
300 |  | COCCN1C(=O)CC(c2ccc(Cl)cc2)C(C(=O)OCc2cccc(OC)c2)=C1C (stereo not given) | 
800 | 900 | CC1=C(C(=O)OCc2ccccc2)C(c2ccc(Cl)cc2)CC(=O)N1Cc1ccccc1 (stereo not given) | 
400 | 800 | COCCN1C(=O)CC(c2ccc(Cl)cc2)C(C(=O)OCc2cccc(C(F)(F)F)c2)=C1C (stereo not given) | 
1200 |  | COCCN1C(=O)CC(c2ccc(Cl)cc2)C(C(=O)OCc2ccccc2C(F)(F)F)=C1C (stereo not given) | EC50 ([2]; read-out: pEC50 (converted)): 1260 nM
 | 400 | COCCN1C(=O)CC(c2ccc(Cl)cc2)C(C(=O)OCc2ccc(Cl)cc2)=C1C (stereo not given) | 
 | 300 | COCCN1C(=O)CC(c2ccc(Cl)cc2)C(C(=O)OCc2ccc(OC)cc2)=C1C (stereo not given) | 
800 |  | COCCN1C(=O)CC(c2ccc(Cl)cc2)C(C(=O)OCCCc2ccccc2)=C1C (stereo not given) | 
13000 |  | COCCN1C(=O)CC(c2ccc(Cl)cc2)C(C(=O)NCc2ccccc2)=C1C (stereo not given) | 
800 | 800 | COCCN1C(=O)CC(c2ccc(Cl)cc2)C(C(=O)OCc2cccc(C(=O)OC)c2)=C1C (stereo not given) | 
 | 15000 | COC(=O)C1=C(C)N(C)C(=O)CC1c1ccc(Cl)cc1 (stereo not given) | 
 | 4700 | CC1=C(C(=O)OCc2ccccc2)C(c2ccc(Cl)cc2)CC(=O)N1CCN(C)C (stereo not given) | 
 | 8600 | O=C1CC(c2ccc(Cl)cc2)C(C(=O)OCc2ccccc2)=CN1 (stereo not given) | 
800 |  | C=CCN1C(=O)CC(c2ccc(Cl)cc2)C(C(=O)OCc2ccccc2)=C1C (stereo not given) | EC50 ([2]; read-out: pEC50 (converted)): 1580 nM
700 | 1200 | COCCN1C(=O)CC(c2ccc(Cl)cc2)C(C(=O)OCC2CCCCC2)=C1C (stereo not given) | 
110 |  | COc1ccccc1COC(=O)C1=C(C)N(C[C@@H]2CCCO2)C(=O)C[C@H]1c1ccc(Cl)cc1 (racemic) | 
2 |  | COc1ccccc1COC(=O)C1=C(C)N(CC2CCCO2)C(=O)CC1c1ccc(Cl)nc1 (racemic; 77) | EC50 ([1]; read-out: pEC50 (converted)): 31.6 nM
88 |  | COc1ccccc1COC(=O)C1=C(C)N(CC2CCCO2)C(=O)CC1c1ccc(Cl)nc1 (racemic; 78) | 
75 | 120 | COCCN1C(=O)CC(c2ccc(Cl)cc2)C(C(=O)OCc2ccccc2OC)=C1C (single isomer, unassigned) | 
